Assay results taken from US5976830A, “Methods of producing doxorubicin” (priority 1996, dated 1999).

System: Streptomyces lividans TK24(pANT195)
Test: Viability of doxA-transformed culture incubated with daunomycin
Assay type: cell-based
Procedure: Cultures of S. lividans TK24 containing plasmid pANT195 and control cultures of S. lividans TK24 containing plasmid pANT849 were grown on R2YE agar medium containing 10 μg/ml of thiostrepton in standard 100 mm×15 mm plastic petri dishes for 5 days at 30° C., at which time the entire cultures had sporulated. The spores from one entire petri plate were used to inoculate 50 ml of modified YEME medium in 250 ml erlenmeyer flasks. Then 10 μg/ml thiostrepton in DMSO were added to the medium. The thiostrepton was added as selective pressure to maintain the plasmids. The cultures were grown for 48 hours at 30° C. with rotary shaking at 250 rpm, one inch throw on the shaker. After 48 hours, a 1.5 ml sample was removed for plasmid analysis to ensure the presence and size of the insert DNA containing the doxA gene using a "mini-prep" procedure according to Carter, M. J., and I. D. Milton, (1993), "An Inexpensive and Simple Method for DNA Purification on Silica Particles," Nucleic Acids Res., Vol. 21, page 1044. Restriction endonuclease digestion with BspEI and agarose gel electrophoresis generated 1.7 kbp, 2.2 kbp, and 3.14 kbp fragments which indicated an intact plasmid and insert. Then a 10 μL solution containing 100 μg of filter sterilized daunomycin-HCl in distilled water was added to the cultures for a final concentration of 2.0 μg of daunomycin per ml of culture broth. Incubation was continued for 72 hours.
The procedure of Example 1 was repeated, with the following exceptions. The cultures were grown at 28° C. rather than 30° C., for 48 hours. After 48 hours of growth, 500 μg of daunomycin-HCl were added to the cultures for a final concentration of 10.0 μg/ml of daunomycin followed by further incubation for 36 hours, instead of 72 hours.
A 50 ml culture of Streptomyces lividans TK24(pANT195) culture was prepared as in Example 1. […] The cultures were incubated for 48 hours and then extracted as described in Example 1 and analyzed by HPLC and TLC. […]

COc1cccc2c1C(=O)c1c(O)c3c(c(O)c1C2=O)C[C@@](O)(C(C)=O)C[C@@H]3O[C@H]1C[C@H](N)[C@H](O)[C@H](C)O1 [daunomycin]
state of the cultures after incubation with daunomycin (2 μg/ml of daunomycin, cultures of Examples 1 and 2): fully viable | toxicity to the host (16.7 μg/ml of daunomycin, about 8-fold concentrated mycelia in MOPS buffer pH 7.2 (Example 10)): toxic to the host | state of the doxA transformed culture at the end of incubation (22.2 μg/ml daunomycin, 48 hours, 28° C., YEME medium (Example 3)): virtually dead
